Positions of bridges follow the written chain, without caps; N, C: chain ends. Non-standard residues stand in square brackets, D forms with d. Residues, ends and D or L forms follow the SMILES beside them. d1Nal = N[C@H](Cc1cccc2ccccc12)C(=O)O; NMeR = CN[C@@H](CCCNC(=N)N)C(=O)O; hCit = NC(=O)NCCCC[C@H](N)C(=O)O; 4Pal = N[C@@H](Cc1ccncc1)C(=O)O; Cit = NC(=O)NCCC[C@H](N)C(=O)O; Nle = CCCC[C@H](N)C(=O)O; Orn = NCCC[C@H](N)C(=O)O; Aib = CC(C)(N)C(=O)O
How the values were obtained:
Assay type in all cases: cell-based
human MC4R = target: T1, human MC4R (Homo sapiens, UniProt P32245); experiment: split-luciferase cAMP sensor assay, agonist mode (measurement window 1), hMC4R; details: agonist mode; for Emax: % maximal activation, read-out: MC4R cAMP % max activation; for EC50: HEK-293 cells stably expressing hMC4R, read-out: MC4R cAMP EC50
T1 construct: host or cells: HEK-293 cells stably expressing the GScAMP22F split-luciferase cAMP sensor and hMC4R, G418 selection
T1 sequence (P32245 whole entry): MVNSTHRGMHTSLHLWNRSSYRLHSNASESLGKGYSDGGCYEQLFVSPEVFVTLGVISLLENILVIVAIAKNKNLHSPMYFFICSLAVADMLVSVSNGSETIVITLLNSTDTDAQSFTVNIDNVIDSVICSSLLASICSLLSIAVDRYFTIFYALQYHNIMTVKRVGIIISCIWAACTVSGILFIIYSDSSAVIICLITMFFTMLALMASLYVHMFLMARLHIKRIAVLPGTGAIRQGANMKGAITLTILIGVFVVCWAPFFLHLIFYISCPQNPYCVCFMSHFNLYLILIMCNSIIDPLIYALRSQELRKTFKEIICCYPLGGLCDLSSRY
Outline: (§1)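 EC50 values come from a four-parameter variable-slope fit of luminescence in measurement window 1, capturing direct peptide effects on receptor-expressing cells with a cAMP22f luciferase sensor. Cells were preloaded with 4% D-luciferin, serum-free medium; 20 μM forskolin normalized for cell number and transducer efficiency.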

human MC3R = target: T2, human MC3R (Homo sapiens, UniProt P41968); experiment: split-luciferase cAMP sensor assay, agonist mode (measurement window 1), hMC3R; details: for Emax: % maximal activation, read-out: MC3R cAMP % max activation; for Emax / EC50: agonist mode; for MC4R selectivity vs MC3R: MC4R versus MC3R; for EC50: HEK-293 cells stably expressing hMC3R, read-out: MC3R cAMP EC50
T2 construct: expressed in transfected cells; host or cells: HEK-293 cells stably expressing the GScAMP22F split-luciferase cAMP sensor (parent reporter line from Promega); MC3R clone generated in-house, G418 selection
T2 sequence (P41968 whole entry): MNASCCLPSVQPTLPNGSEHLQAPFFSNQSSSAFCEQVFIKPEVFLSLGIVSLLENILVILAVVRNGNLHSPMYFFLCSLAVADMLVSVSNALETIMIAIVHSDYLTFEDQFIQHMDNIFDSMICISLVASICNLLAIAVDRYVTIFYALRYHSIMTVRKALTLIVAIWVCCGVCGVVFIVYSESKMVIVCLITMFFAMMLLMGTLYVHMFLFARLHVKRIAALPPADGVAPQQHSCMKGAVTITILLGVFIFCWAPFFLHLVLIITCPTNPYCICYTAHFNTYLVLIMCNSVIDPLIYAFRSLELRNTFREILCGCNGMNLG
Outline: as §1

human MC1R = target: T3, human MC1R (Homo sapiens, UniProt Q01726); experiment: split-luciferase cAMP sensor assay, agonist mode, hMC1R; details: MC4R versus MC1R
T3 construct: expressed in transfected cells; host or cells: HEK-293 cells stably expressing hMC1R and the GScAMP22F cAMP sensor
T3 sequence (Q01726 whole entry): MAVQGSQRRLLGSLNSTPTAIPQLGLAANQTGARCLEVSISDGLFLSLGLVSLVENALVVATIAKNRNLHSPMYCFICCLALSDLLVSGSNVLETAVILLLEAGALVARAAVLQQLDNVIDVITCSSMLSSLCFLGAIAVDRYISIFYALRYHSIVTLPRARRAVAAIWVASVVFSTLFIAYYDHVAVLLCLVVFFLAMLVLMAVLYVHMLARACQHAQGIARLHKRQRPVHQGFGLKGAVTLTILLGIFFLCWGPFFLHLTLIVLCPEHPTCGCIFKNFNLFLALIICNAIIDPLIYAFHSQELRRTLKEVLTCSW
Method: FIG. 4A-B. (A) Pharmacological properties of exemplary MC4R agonist peptides, including those with improved efficacy in the MC4R+/− mouse (CTX-1211, CTX-1227, and CTX-1228). Concentration-response agonist curves for peptides indicated at the human MC4R (red), human MC3R (blue), human MC5R (green), and human MC1R (black) were determined by a split-luciferase cAMP sensor dynamic assay in HEK-293 cells stably expressing the hMC1R, hMC3R, hMC4R, or hMC5R and the GScAMP22F cAMP sensor. Each data point represents the mean±SEM of two experiments with three replicates each per experiment. Data is normalized to the ECmax of α-MSH. (B) Same as above, for peptides representing reduced activity at the hMC1R. Inset tables indicate EC50 values for the ligand indicated for each receptor.
The assay for the determination of the cAMP response in live cells was described previously. (Yu et al., 2020, Science 368, 428-433; incorporated by reference in its entirety). Cells were seeded at a density of 20,000 cells per well using 384-well poly-D lysine-coated, clear bottom, and black-wall assay plates (Corning Inc. Corning, NJ). Cells were allowed to attach to the plates for 18 to 24 h after which growth media was removed and 20 μl of 4% D-luciferin (Promega) in CO2 independent, serum-free medium (Thermo Fisher Scientific) was added to each well. The luciferase substrate was allowed to permeate the cells for 120 min at 37° C. Intracellular cAMP levels were measured using an FDSS 7000EX Functional Drug Screening System (Hamamatsu Photonics, Hamamatsu, Japan) in the Center for Chemical Genomics at the Life Sciences Institute. This instrument allowed the in-line addition of test-peptides and receptor agonists while simultaneously acquiring the luminescence signal from live cells. Assay read steps were set as follows: baseline acquisition of 2 min, the addition of 10 μl of varying 3× concentrations of test-peptides or vehicle followed by 11 min measurement (measurement window 1), and 10 μl addition of 4× concentration of the endogenous melanocortin agonist α-MSH (Bachem, Bubendorf, Switzerland) followed by an additional 11 min response measurement (measurement window 2). The resulting final concentration of α-MSH was close to the respective receptor EC90 dose for each receptor. Intraplate concentration response curves for α-MSH and SHU-9119 (Phoenix Pharmaceuticals, Burlingame CA) were included as reference controls. A submaximal forskolin (20 μM) concentration was also included to serve as a normalization reference to account for cell number variations and differences in assay transducer efficiency between cell lines.
With this set up it was possible to evaluate the direct effect of the test-peptides on the MC3R and MC4R cell lines during measurement window 1, while the antagonist profile in the presence of EC90 α-MSH was determined on measurement window 2. For data analysis baseline luminescence (i.e. the maximum luminescence signal from the initial 0 to 2 min window) was subtracted from the maximum luminescence obtained during measurement window 1 (2 to 13 min) and measurement window 2 (13 to 24 min) to yield the test-peptide elicited responses. EC50 or IC50 potency values were determined by non-linear regression by fitting the data to a sigmoid four-parameter variable slope model using the GraphPad Prism version 8.4 software package (San Diego CA).

| SMILES | Emax (human MC4R) [%] | Emax (human MC3R) [%] | MC4R selectivity vs MC3R (human MC3R) | MC4R selectivity vs MC1R (human MC1R) | EC50 (human MC3R) [nM] | EC50 (human MC4R) [nM] |
| --- | --- | --- | --- | --- | --- | --- |
| CCCC[C@H](NC(=O)[C@H](CCCNC(=N)N)NC(C)=O)C(=O)N[C@H]1CSSC[C@@H](C(N)=O)NC(=O)[C@H](Cc2ccccc2)NC(=O)[C@H](CCCNC(=N)N)NC(=O)[C@@H](Cc2ccccc2)NC(=O)[C@H](CCCNC(N)=O)NC1=O [CTX-1626, Arg-Nle-cyclo(Cys-Cit-D-Phe-Arg-Phe-Cys)] (Ac-R[Nle]C[Cit][dF]RFC-NH2; disulfide 3-8 (inferred)) | 83 | 51 | 1.6 | 3.05 |  |  |
| CC(=O)N[C@@H](CCCNC(=N)N)C(=O)N[C@H]1CSSC[C@@H](C(N)=O)NC(=O)[C@@H](Cc2c[nH]c3ccccc23)NC(=O)[C@H](CCCNC(=N)N)N(C)C(=O)[C@@H](Cc2ccccc2)NC(=O)[C@H](CCCNC(=N)N)NC(=O)[C@@H](C)NC1=O [CTX-1284, Arg-cyclo(Cys-D-Ala-Arg-D-Phe-N-Me-Arg-D-Trp-Cys)] (Ac-RC[dA]R[dF][NMeR][dW]C-NH2; disulfide 2-8) | 91 | 45 | 8.11 | 0.15 | 1040 |  |
| CC(=O)N[C@H]1CSSC[C@@H](C(N)=O)NC(=O)[C@H](Cc2c[nH]c3ccccc23)NC(=O)[C@H](CCCNC(=N)N)NC(=O)[C@@H](Cc2ccccc2)NC(=O)[C@H](CCCNC(N)=O)NC(=O)C(C)(C)NC1=O [CTX-1633, cyclo(Cys-Aib-Cit-D-Phe-Arg-Trp-Cys)] (Ac-C[Aib][Cit][dF]RWC-NH2; disulfide 1-7 (inferred)) | 110 | 45 | 104 | 942 |  |  |
| CC(=O)N[C@@H](CCCNC(=N)N)C(=O)N[C@H]1CSSC[C@@H](C(N)=O)NC(=O)[C@H](Cc2c[nH]c3ccccc23)NC(=O)[C@H](CCCNC(=N)N)NC(=O)[C@@H](Cc2ccccc2)NC(=O)[C@H](CCCNC(N)=O)NC(=O)[C@H](C)NC1=O [CTX-1287, Arg-cyclo(Cys-Ala-Cit-D-Phe-Arg-Trp-Cys)] (Ac-RCA[Cit][dF]RWC-NH2; disulfide 2-8 (inferred)) | 94 | 43 | 66 | 281 |  |  |
| CC(=O)N[C@@H](CCCNC(=N)N)C(=O)N[C@H]1CSSC[C@@H](C(N)=O)NC(=O)[C@H](Cc2c[nH]c3ccccc23)NC(=O)[C@H](CCCNC(=N)N)NC(=O)[C@@H](Cc2ccccc2)NC(=O)[C@H](CCCNC(N)=O)NC(=O)C(C)(C)NC1=O [CTX-1289, Arg-cyclo(Cys-Aib-Cit-D-Phe-Arg-Trp-Cys)] | 93 | 21 | 30 | 130 |  |  |
| CCCC[C@H](NC(=O)[C@H](CCCNC(=N)N)NC(C)=O)C(=O)N[C@H]1CSSC[C@@H](C(N)=O)NC(=O)[C@H](Cc2c[nH]c3ccccc23)NC(=O)[C@H](CCCNC(=N)N)NC(=O)[C@@H](Cc2ccccc2)NC(=O)[C@H](Cc2ccncc2)NC1=O [CTX-1621, Arg-Nle-cyclo(Cys-Pal(4′)-D-Phe-Arg-Trp-Cys)] (Ac-R[Nle]C[4Pal][dF]RWC-NH2; disulfide 3-8 (inferred)) | 92 | 15 | 13 | 82 |  | 2.9 |
| CC(=O)N[C@@H](CCCNC(=N)N)C(=O)N[C@H]1CSSC[C@@H](C(N)=O)NC(=O)[C@H](Cc2c[nH]c3ccccc23)NC(=O)[C@H](CCCNC(=N)N)NC(=O)[C@@H](Cc2ccccc2)NC(=O)[C@H](CCCNC(=N)N)NC(=O)[C@H](C)NC1=O [CTX-1267, Arg-cyclo(Cys-Ala-Arg-D-Phe-Arg-Trp-Cys)] (Ac-RCAR[dF]RWC-NH2; disulfide 2-8) | 96 | 40 | 4.07 | 0.5 | 12 | 3 |
| CC(=O)N[C@@H](CCCNC(=N)N)C(=O)N[C@H]1CSSC[C@@H](C(N)=O)NC(=O)[C@H](Cc2ccccc2)NC(=O)[C@H](CCCNC(=N)N)NC(=O)[C@@H](Cc2ccccc2)NC(=O)[C@H](CCCN)NC(=O)C(C)(C)NC1=O [CTX-1602, Arg-cyclo(Cys-Aib-Orn-D-Phe-Arg-Phe-Cys)] (Ac-RC[Aib][Orn][dF]RFC-NH2; disulfide 2-8) | 97 | 80 | 3.44 | 3.65 |  |  |
| N=C(N)NCCC[C@@H]1NC(=O)[C@@H](Cc2ccccc2)NC(=O)[C@H](CCCNC(N)=O)NC(=O)CNC(=O)CSC[C@@H](C(N)=O)NC(=O)[C@H](Cc2c[nH]c3ccccc23)NC1=O [CTX-1646, Thioether-cyclo(Gly-Cit-D-Phe-Arg-Trp-Cys)] ({CH2CO}-G[Cit][dF]RWC-NH2; thioether N-6) | 103 | 70 | 193 | >770 |  | 13 |
| CC(=O)N[C@@H](CCCNC(=N)N)C(=O)N[C@H]1CSSC[C@@H](C(N)=O)NC(=O)[C@H](Cc2ccccc2)NC(=O)[C@H](CCCNC(=N)N)NC(=O)[C@@H](Cc2ccccc2)NC(=O)[C@H](CCCCNC(N)=O)NC(=O)C(C)(C)NC1=O [CTX-1603, Arg-cyclo(Cys-Aib-homo-Cit-D-Phe-Arg-Phe-Cys)] (Ac-RC[Aib][hCit][dF]RFC-NH2; disulfide 2-8 (inferred)) | 91 |  | >18 | 2.46 | > 10000 |  |
| CCCC[C@H](NC(=O)[C@H](CCCNC(=N)N)NC(C)=O)C(=O)N[C@H]1CSSC[C@@H](C(N)=O)NC(=O)[C@H](Cc2c[nH]c3ccccc23)NC(=O)[C@H](CCCNC(=N)N)NC(=O)[C@@H](Cc2cccc3ccccc23)NC(=O)[C@H](CCCNC(=N)N)NC1=O [CTX-1611, Arg-Nle-cyclo(Cys-Arg-D-Nal(1′)-Arg-Trp-Cys)] (Ac-R[Nle]CR[d1Nal]RWC-NH2; disulfide 3-8 (inferred)) | 67 | 58 | 6.61 | 0.25 | 11 | 1.6 |
| N=C(N)NCCC[C@@H]1NC(=O)CNC(=O)CSC[C@@H](C(N)=O)NC(=O)[C@H](Cc2c[nH]c3ccccc23)NC(=O)[C@H](CCCNC(=N)N)NC(=O)[C@@H](Cc2ccccc2)NC1=O [CTX-1645, Thioether-cyclo(Gly-Arg-D-Phe-Arg-Trp-Cys)] ({CH2CO}-GR[dF]RWC-NH2; thioether N-6) | 110 | 97 | 42 | 9.04 | 68 | 1.6 |
| CC(=O)N[C@@H](CCCNC(=N)N)C(=O)N[C@H]1CSSC[C@@H](C(N)=O)NC(=O)[C@@H](Cc2c[nH]c3ccccc23)NC(=O)[C@H](CCCNC(N)=O)NC(=O)[C@@H](Cc2ccccc2)NC(=O)[C@H](CCCNC(=N)N)NC(=O)[C@@H](C)NC1=O [CTX-1281, Arg-cyclo(Cys-D-Ala-Arg-D-Phe-Cit-D-Trp-Cys)] (Ac-RC[dA]R[dF][Cit][dW]C-NH2; disulfide 2-8 (inferred)) | 92 | 44 | 0.29 | 0.44 | 28 |  |

— patent US20240391954A1, “MC4R AGONIST PEPTIDES” (The Regents of the University of Michigan, priority 2021, published 2024)
